pIC50: −log10 of the molar value. ≈ marks a conversion by molar mass, not a printed value.
Tests used:
[1] = biological target: T1, Carnitine O-palmitoyltransferase 1, liver isoform (Homo sapiens, UniProt P50416); assay: (§1) SUPPLEMENTARY: Inhibition of Carnitine palmitoyltransferase 1, liver isoform
T1 sequence (P50416 whole entry): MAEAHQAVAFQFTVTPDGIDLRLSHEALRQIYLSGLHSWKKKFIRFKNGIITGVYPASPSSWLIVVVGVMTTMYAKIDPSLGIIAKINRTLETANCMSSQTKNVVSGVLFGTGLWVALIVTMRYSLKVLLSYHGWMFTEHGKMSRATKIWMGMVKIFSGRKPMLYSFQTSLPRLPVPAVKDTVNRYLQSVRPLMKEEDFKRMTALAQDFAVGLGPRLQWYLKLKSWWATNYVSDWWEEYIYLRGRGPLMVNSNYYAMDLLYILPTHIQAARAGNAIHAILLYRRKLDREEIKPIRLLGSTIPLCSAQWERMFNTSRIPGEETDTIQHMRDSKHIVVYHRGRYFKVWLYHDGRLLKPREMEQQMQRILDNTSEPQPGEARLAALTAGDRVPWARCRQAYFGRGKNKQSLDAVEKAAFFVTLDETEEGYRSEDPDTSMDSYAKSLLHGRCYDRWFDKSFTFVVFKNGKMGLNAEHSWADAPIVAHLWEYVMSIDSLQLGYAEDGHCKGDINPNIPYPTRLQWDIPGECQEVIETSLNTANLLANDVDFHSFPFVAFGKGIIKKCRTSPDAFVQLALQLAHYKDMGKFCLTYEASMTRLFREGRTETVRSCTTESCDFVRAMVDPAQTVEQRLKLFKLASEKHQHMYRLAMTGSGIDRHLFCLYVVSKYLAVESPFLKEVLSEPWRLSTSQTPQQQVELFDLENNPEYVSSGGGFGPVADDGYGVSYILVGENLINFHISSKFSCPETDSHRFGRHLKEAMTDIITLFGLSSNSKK

[2] = biological target: T2, Carnitine O-palmitoyltransferase 1, liver isoform (Rattus norvegicus, UniProt P32198); assay: as §1
T2 sequence (P32198 whole entry): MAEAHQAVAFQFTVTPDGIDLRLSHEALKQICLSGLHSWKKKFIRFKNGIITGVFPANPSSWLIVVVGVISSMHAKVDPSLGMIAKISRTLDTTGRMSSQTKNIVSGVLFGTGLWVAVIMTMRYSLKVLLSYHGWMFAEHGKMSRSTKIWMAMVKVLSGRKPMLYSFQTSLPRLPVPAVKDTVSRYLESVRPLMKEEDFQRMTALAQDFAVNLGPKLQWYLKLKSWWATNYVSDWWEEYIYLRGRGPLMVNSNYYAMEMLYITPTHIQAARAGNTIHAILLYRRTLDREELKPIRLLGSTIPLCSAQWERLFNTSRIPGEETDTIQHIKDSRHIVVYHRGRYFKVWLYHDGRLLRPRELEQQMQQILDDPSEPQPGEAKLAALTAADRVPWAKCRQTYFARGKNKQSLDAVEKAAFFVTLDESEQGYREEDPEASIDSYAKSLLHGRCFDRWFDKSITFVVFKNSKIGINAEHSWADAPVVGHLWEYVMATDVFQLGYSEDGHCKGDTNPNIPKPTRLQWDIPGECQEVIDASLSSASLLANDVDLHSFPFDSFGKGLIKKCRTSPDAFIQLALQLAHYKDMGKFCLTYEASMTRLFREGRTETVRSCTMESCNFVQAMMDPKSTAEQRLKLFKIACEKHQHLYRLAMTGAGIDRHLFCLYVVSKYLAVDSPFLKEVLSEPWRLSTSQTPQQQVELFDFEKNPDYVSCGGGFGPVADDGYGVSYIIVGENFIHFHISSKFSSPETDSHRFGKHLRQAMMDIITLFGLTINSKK

[3] = SUPPLEMENTARY: PAMPA permeability assay; type: physicochemical; conditions: read-out: Permeability
[4] = SUPPLEMENTARY: Lipophilicity (log D) Determination by high-throughput shake-flask; type: physicochemical; conditions: octanol/water
[5] = SUPPLEMENTARY: Lyophilisation Solubility Assay (LYSA); type: physicochemical; conditions: read-out: Kinetic_solubility
[6] = biological target: T3, Carnitine O-palmitoyltransferase 1, muscle isoform (Homo sapiens, UniProt Q92523); assay: SUPPLEMENTARY: Inhibition of Carnitine palmitoyltransferase 1, muscle isoform; design: species or system Muscle tissue
T3 sequence (Q92523 whole entry): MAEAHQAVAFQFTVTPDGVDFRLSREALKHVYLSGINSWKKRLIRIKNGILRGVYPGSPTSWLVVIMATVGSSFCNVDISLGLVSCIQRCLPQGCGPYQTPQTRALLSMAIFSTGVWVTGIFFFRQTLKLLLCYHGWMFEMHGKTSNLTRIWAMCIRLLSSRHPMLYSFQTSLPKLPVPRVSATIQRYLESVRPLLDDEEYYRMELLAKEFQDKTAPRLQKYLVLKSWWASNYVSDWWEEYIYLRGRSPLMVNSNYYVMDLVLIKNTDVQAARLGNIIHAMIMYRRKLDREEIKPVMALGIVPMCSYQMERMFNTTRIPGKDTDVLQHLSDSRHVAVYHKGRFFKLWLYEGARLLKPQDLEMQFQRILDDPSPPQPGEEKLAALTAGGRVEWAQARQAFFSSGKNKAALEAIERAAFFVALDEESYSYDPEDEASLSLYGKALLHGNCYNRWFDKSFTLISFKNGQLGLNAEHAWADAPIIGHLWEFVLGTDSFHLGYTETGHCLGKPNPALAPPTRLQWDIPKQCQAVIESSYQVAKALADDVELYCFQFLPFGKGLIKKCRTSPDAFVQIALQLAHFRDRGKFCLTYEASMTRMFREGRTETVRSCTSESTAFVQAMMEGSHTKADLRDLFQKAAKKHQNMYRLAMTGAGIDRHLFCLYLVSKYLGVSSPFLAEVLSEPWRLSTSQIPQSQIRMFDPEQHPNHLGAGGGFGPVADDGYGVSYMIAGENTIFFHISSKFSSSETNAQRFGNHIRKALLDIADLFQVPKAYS

[7] = biological target: T4, Carnitine O-palmitoyltransferase 2, mitochondrial (Rattus norvegicus, UniProt P18886); assay: (§2) SUPPLEMENTARY: Inhibition of Carnitine palmitoyltransferase 2
T4 sequence (P18886 whole entry): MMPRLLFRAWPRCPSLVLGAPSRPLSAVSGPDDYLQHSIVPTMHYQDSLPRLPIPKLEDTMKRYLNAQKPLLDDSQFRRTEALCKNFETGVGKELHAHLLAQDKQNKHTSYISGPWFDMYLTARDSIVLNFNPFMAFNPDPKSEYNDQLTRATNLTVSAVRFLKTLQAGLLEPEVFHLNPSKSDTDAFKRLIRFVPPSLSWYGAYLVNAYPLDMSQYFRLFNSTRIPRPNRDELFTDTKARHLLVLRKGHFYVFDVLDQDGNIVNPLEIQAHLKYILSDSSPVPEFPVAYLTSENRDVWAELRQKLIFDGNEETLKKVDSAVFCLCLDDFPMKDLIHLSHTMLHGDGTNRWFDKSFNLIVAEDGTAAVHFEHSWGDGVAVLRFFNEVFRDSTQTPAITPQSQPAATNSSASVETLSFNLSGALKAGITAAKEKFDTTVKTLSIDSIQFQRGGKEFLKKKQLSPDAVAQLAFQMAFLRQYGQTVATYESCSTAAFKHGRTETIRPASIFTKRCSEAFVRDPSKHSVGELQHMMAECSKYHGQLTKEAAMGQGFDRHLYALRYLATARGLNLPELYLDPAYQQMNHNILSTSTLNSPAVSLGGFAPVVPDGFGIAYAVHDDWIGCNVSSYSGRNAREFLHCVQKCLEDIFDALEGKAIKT

[8] = biological target: T5, Carnitine O-palmitoyltransferase 2, mitochondrial (Homo sapiens, UniProt P23786); assay: as §2
T5 sequence (P23786 whole entry): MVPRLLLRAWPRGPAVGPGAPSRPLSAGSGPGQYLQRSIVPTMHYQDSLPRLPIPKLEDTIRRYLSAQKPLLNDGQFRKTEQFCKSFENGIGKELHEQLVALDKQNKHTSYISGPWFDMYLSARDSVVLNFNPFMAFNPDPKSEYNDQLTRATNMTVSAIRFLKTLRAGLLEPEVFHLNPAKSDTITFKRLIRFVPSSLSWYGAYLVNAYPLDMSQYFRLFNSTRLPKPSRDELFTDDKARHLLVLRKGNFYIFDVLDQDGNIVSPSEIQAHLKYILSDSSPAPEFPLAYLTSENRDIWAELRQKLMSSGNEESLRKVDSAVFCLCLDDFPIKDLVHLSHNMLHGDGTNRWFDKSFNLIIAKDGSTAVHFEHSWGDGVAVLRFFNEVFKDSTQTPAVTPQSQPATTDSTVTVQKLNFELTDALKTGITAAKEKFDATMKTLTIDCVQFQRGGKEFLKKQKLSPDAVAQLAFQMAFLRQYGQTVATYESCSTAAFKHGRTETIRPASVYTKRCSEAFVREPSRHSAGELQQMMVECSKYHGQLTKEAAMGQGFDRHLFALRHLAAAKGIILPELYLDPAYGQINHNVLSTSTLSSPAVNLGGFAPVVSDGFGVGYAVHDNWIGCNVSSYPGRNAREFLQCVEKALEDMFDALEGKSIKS

| SMILES | pIC50 [1] | pIC50 [2] | Papp [3] | logD [4] | solubility kinetic [5] | pIC50 [6] | pIC50 [7] | pIC50 [8] |
| --- | --- | --- | --- | --- | --- | --- | --- | --- |
| COc1ccc(Cl)cc1S(=O)(=O)N1CCOc2ncc(C(=O)Nc3ccc(C(=O)O)cc3)cc21 | 6.48 | 6.77 | 0.74 ×10⁻⁶ cm/s | 0.2 | 47 µg/mL (≈ 93.3 µM) | < 4.00 | < 4.00 | < 4.00 |
| Cc1sc([C@H]2CCCCN2C(=O)COc2ccccc2)nc1-c1cccc(C(=O)O)c1 | 7.03 | 6.93 | 6.19 ×10⁻⁶ cm/s | 0.73 | 402 µg/mL (≈ 921 µM) | 4.52 | < 4.00 | 4.28 |
| O=C(O)c1ccc(NC(=O)c2ccc3c(c2)N(S(=O)(=O)c2cccc(Cl)c2)CC[S+]3[O-])cc1 (configuration not stated) | 6.89 | 7.02 | 0.28 ×10⁻⁶ cm/s | -0.14 | 3 µg/mL (≈ 5.94 µM) | 4.28 | < 4.00 | < 4.00 |
| Cc1cc(C)cc(S(=O)(=O)N2CCOc3ccc(C(=O)Nc4nc(CC(=O)O)cs4)cc32)c1 | 7.37 | 7.50 | 3.17 ×10⁻⁶ cm/s | 0.5 | > 615 µg/mL | 6.10 | < 4.00 | < 4.00 |
| COC1CCC(c2nc([C@H]3CCCCN3C(=O)COc3ccccc3)no2)CC1 (some centres not stated) | 6.72 | 6.65 | 3.5 ×10⁻⁶ cm/s | 2.83 | 50.5 µg/mL (≈ 126 µM) | < 4.00 | < 4.00 | 4.11 |
| COc1ccc(Cl)cc1CN1C(=O)OC(C)(C)c2ccc(C(=O)Nc3nc(CC(=O)O)cs3)cc21 | 7.23 | 7.22 | 1.93 ×10⁻⁶ cm/s | 1.17 | 150 µg/mL (≈ 291 µM) | 6.00 | < 4.00 | < 4.00 |
| O=C(COc1ccccc1)N1CCCC[C@@H]1c1noc(C2CCCCC2)n1 | 7.06 | 6.18 | 0.965 ×10⁻⁶ cm/s | 3.31 | < 1 µg/mL | < 4.00 | < 4.00 | 4.32 |
| CN1CCN(C(=O)COc2ccccc2)[C@@H](c2nc(-c3ccc4c(c3)CC(=O)N4)no2)C1 | 6.86 | 6.52 | 3.38 ×10⁻⁶ cm/s | 1.91 | 73 µg/mL (≈ 168 µM) | < 4.00 | 4.46 | 4.78 |
| Nc1cc(-c2n[nH]c([C@H]3CCCCN3C(=O)COc3ccccc3)n2)ccn1 | 6.91 | 5.88 | 2.77 ×10⁻⁶ cm/s | 1.95 | 281 µg/mL (≈ 743 µM) | < 4.00 | < 4.00 | < 4.00 |

Other lines, results leading:

| pIC50 [1] | pIC50 [2] | Papp [3] | logD [4] | solubility kinetic [5] | pIC50 [6] | pIC50 [7] | pIC50 [8] | SMILES |
| --- | --- | --- | --- | --- | --- | --- | --- | --- |
| 7.03 | 6.34 | 1.83 ×10⁻⁶ cm/s | 2.38 | 23 µg/mL (≈ 53.1 µM) | < 4.00 | < 4.00 | 4.67 | O=C1CNc2ccc(-c3nc([C@H]4CCCCN4C(=O)COc4ccccc4)no3)cc2N1 |
| 7.42 | 7.32 | 1.77 ×10⁻⁶ cm/s | 0.55 | 182 µg/mL (≈ 351 µM) | 5.52 | 4.99 | 5.55 | COc1ccc(Cl)cc1S(=O)(=O)N1CCCc2ccc(C(=O)Nc3ccc(C(=O)O)c(F)c3)cc21 |
| 7.09 | 6.88 | 0.06 ×10⁻⁶ cm/s | -0.22 | 347 µg/mL (≈ 666 µM) | 4.00 | < 4.00 | < 4.00 | COc1ccc(Cl)cc1S(=O)(=O)N1CC(C(=O)O)Oc2ccc(C(=O)Nc3ccc(F)cc3)cc21 (configuration not stated) |
| 6.95 | 6.79 | 0.23 ×10⁻⁶ cm/s | 0.07 | 58 µg/mL (≈ 112 µM) | 5.19 | < 4.00 | 4.38 | COc1ccc(Cl)cc1S(=O)(=O)N1CCNc2ccc(C(=O)Nc3ccc(C(=O)O)c(F)c3)cc21 |
| 6.86 | 6.21 | 3.94 ×10⁻⁶ cm/s | 2.34 | 141 µg/mL (≈ 383 µM) | < 4.00 | < 4.00 | < 4.00 | Cc1cc(-c2noc([C@H]3CCCCN3C(=O)COc3ccccc3)n2)no1 |
